Several values for one entry are separate records, joined by “and”; a condition that tells them apart may be missing. Equal values may be shown once. Toxic doses and inconclusive results are not listed.
Test system: P388 leukemia ip, CD2F1 mice, survival T/C
Experiment: NCI In Vivo Anticancer Drug Screen. Data for tumor model P388 Leukemia (intraperitoneal) in CD2F1 (CDF1) mice
Settings: endpoint: median survival time, higher = longer survival
Procedure, shortened: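 Mice carrying the transplanted tumor received test compound or vehicle. Survival was recorded in each group, and the value is the treated-group measurement divided by that of the vehicle-treated control group.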

[1] = dose: 50.0 mg/kg/injection, schedule: Q01DX005 (ip), vehicle: saline with Tween-80
[2] = dose: 100.0 mg/kg/injection, schedule: Q01DX005 (ip), vehicle: saline with Tween-80
[3] = dose: 200.0 mg/kg/injection, schedule: Q01DX005 (ip), vehicle: saline with Tween-80
[4] = dose: 100.0 mg/kg/injection, schedule: Q01DX001 (ip), vehicle: saline with Tween-80
[5] = dose: 200.0 mg/kg/injection, schedule: Q01DX001 (ip), vehicle: saline with Tween-80
[6] = dose: 400.0 mg/kg/injection, schedule: Q01DX001 (ip), vehicle: saline with Tween-80
[7] = dose: 6.25 mg/kg/injection, schedule: Q01DX009 (ip), vehicle: saline
[8] = dose: 12.5 mg/kg/injection, schedule: Q01DX009 (ip), vehicle: saline
[9] = dose: 100.0 mg/kg/injection, schedule: Q01DX009 (ip), vehicle: saline
[10] = dose: 50.0 mg/kg/injection, schedule: Q01DX005 (ip), vehicle: saline
[11] = dose: 100.0 mg/kg/injection, schedule: Q01DX005 (ip), vehicle: saline
[12] = dose: 60.0 mg/kg/injection, schedule: Q01DX005 (ip), vehicle: Klucel (hydroxypropylcellulose) (HPC)
[13] = dose: 6.25 mg/kg/injection, schedule: Q01DX009 (ip), vehicle: water
[14] = dose: 12.5 mg/kg/injection, schedule: Q01DX009 (ip), vehicle: water
[15] = dose: 25.0 mg/kg/injection, schedule: Q01DX009 (ip), vehicle: water
[16] = dose: 50.0 mg/kg/injection, schedule: Q01DX009 (ip), vehicle: water
[17] = dose: 100.0 mg/kg/injection, schedule: Q01DX009 (ip), vehicle: water

c1c[n+](CC2CO2)ccc1-c1cc[n+](CC2CO2)cc1 (stereo not given)
T/C (dose: 25.0 mg/kg/injection, schedule: Q01DX009 (ip), vehicle: Klucel (hydroxypropylcellulose) (HPC)): 120 % of control | T/C (dose: 40.0 mg/kg/injection, schedule: Q01DX009 (ip), vehicle: Klucel (hydroxypropylcellulose) (HPC)): 162 % of control | T/C (dose: 50.0 mg/kg/injection, schedule: Q01DX009 (ip), vehicle: Klucel (hydroxypropylcellulose) (HPC)): 163 % of control | T/C (dose: 80.0 mg/kg/injection, schedule: Q01DX009 (ip), vehicle: Klucel (hydroxypropylcellulose) (HPC)): 159 % of control | T/C (dose: 100.0 mg/kg/injection, schedule: Q01DX009 (ip), vehicle: Klucel (hydroxypropylcellulose) (HPC)): 161 % of control

N#CC1=C2CCCCC2(O)NC1=O (stereo not given)
T/C (dose: 6.25 mg/kg/injection, schedule: Q01DX005 (ip), vehicle: Klucel (hydroxypropylcellulose) (HPC)): 108 % of control | T/C (dose: 12.5 mg/kg/injection, schedule: Q01DX005 (ip), vehicle: Klucel (hydroxypropylcellulose) (HPC)): 115 % of control

COc1ccc(N=C(Cl)c2ccc(Br)cc2)cc1
T/C [1]: 97 % of control | T/C [2]: 96 % of control | T/C [3]: 96 % of control

O=C(O)Cc1c[nH]c2ccccc12
T/C [4]: 105 % of control | T/C [5]: 100 % of control | T/C [6]: 99 % of control

CCCCCCCCCCCCCCCc1c(NC(C)(CC)[P+](=O)O)c(=O)n(C)n1C (stereo not given)
T/C [7]: 112 % of control | T/C [8]: 100 % of control | T/C [9]: 101 % of control

C=CC1CC/C(=C/C)C(=O)O1 (stereo not given)
T/C (dose: 50.0 mg/kg/injection, schedule: Q04DX003 (ip), vehicle: saline with Tween-80): 103 % of control | T/C (dose: 100.0 mg/kg/injection, schedule: Q04DX003 (ip), vehicle: saline with Tween-80): 100 % of control | T/C (dose: 200.0 mg/kg/injection, schedule: Q04DX003 (ip), vehicle: saline with Tween-80): 100 % of control

C=C1C(=O)C23C(OC(=O)CCCCC)C1CCC2C12COC3(O)C(O)C1C(C)(C)CCC2O (stereo not given)
T/C (dose: 3.75 mg/kg/injection, schedule: Q01DX009 (ip), vehicle: saline with Tween-80): 102 % of control | T/C (dose: 7.5 mg/kg/injection, schedule: Q01DX009 (ip), vehicle: saline with Tween-80): 105 % of control | T/C (dose: 15.0 mg/kg/injection, schedule: Q01DX009 (ip), vehicle: saline with Tween-80): 113 % of control | T/C (dose: 30.0 mg/kg/injection, schedule: Q01DX009 (ip), vehicle: saline with Tween-80): 104 % of control

C1CCC2OCCOCCOCCOCCOC2C1 (stereo not given)
T/C [10]: 95 % of control | T/C [11]: 95 % of control

CN(C)CCOc1cnc2ccc(Cl)cc2n1
T/C (dose: 50.0 mg/kg/injection, schedule: Q01DX005 (ip), vehicle: Klucel (hydroxypropylcellulose) (HPC)): 88 % of control | T/C (dose: 100.0 mg/kg/injection, schedule: Q01DX005 (ip), vehicle: Klucel (hydroxypropylcellulose) (HPC)): 88 % of control

OC1(C(O)(c2ccc(-c3ccccc3)cc2)c2ccc(-c3ccccc3)cc2)CCCCC1
T/C [1]: 90 % of control | T/C [2]: 87 % of control

CC(=O)c1c(C)oc(C)c1-c1ccc2c(c1)OCO2
T/C [12]: 108 % of control | T/C (dose: 120.0 mg/kg/injection, schedule: Q01DX005 (ip), vehicle: Klucel (hydroxypropylcellulose) (HPC)): 103 % of control | T/C (dose: 240.0 mg/kg/injection, schedule: Q01DX005 (ip), vehicle: Klucel (hydroxypropylcellulose) (HPC)): 104 % of control

c1ccc([C@H]2N[C@@H]2c2ccccn2)cc1
T/C [1]: 106 % of control | T/C [2]: 93 % of control

CCN(CC)C1CS(=O)(=O)OC2=C1Cc1ccccc1CC2 (stereo not given)
T/C (dose: 50.0 mg/kg/injection, schedule: Q04DX003 (ip), vehicle: Klucel (hydroxypropylcellulose) (HPC)): 100 % of control | T/C (dose: 100.0 mg/kg/injection, schedule: Q04DX003 (ip), vehicle: Klucel (hydroxypropylcellulose) (HPC)): 99 % of control | T/C (dose: 200.0 mg/kg/injection, schedule: Q04DX003 (ip), vehicle: Klucel (hydroxypropylcellulose) (HPC)): 105 % of control

O=S(=O)(Nc1ccc2ccc(NS(=O)(=O)N3CCCCC3)cc2c1)N1CCCCC1
T/C [1]: 104 % of control | T/C [2]: 95 % of control | T/C [3]: 100 % of control

NNC(=S)NCCN1CCOCC1
T/C [10]: 105 % of control | T/C [11]: 105 % of control | T/C (dose: 200.0 mg/kg/injection, schedule: Q01DX005 (ip), vehicle: saline): 100 % of control

COC(=O)C(C)NP(=O)(N1CC1)N1CC1 (stereo not given)
T/C (dose: 1.87 mg/kg/injection, schedule: Q01DX005 (ip), vehicle: saline): 119 % of control | T/C (dose: 7.5 mg/kg/injection, schedule: Q01DX005 (ip), vehicle: saline): 176 % of control | T/C (dose: 15.0 mg/kg/injection, schedule: Q01DX005 (ip), vehicle: saline with Tween-80): 257 % of control | T/C (dose: 15.0 mg/kg/injection, schedule: Q01DX005 (ip), vehicle: saline): 226 % of control

CC1(OC(=O)c2ccc(F)cc2)CC(C)(C)[N+]([O-])=N1 (stereo not given)
T/C (dose: 12.5 mg/kg/injection, schedule: Q01DX009 (ip), vehicle: other): 113 % of control | T/C (dose: 25.0 mg/kg/injection, schedule: Q01DX009 (ip), vehicle: other): 101 % of control | T/C (dose: 50.0 mg/kg/injection, schedule: Q01DX009 (ip), vehicle: other): 118 % of control | T/C (dose: 100.0 mg/kg/injection, schedule: Q01DX009 (ip), vehicle: other): 118 % of control | T/C (dose: 200.0 mg/kg/injection, schedule: Q01DX009 (ip), vehicle: other): 123 % of control

N#Cc1cccc(CN2CCCNCC2)c1
T/C [13]: 94 % of control | T/C [14]: 94 % of control | T/C [15]: 103 % of control | T/C [16]: 109 % of control | T/C [17]: 105 % of control

O=C(Nc1ccc(Cl)cc1)NC1OC(=O)C(Cl)=C1Cl (stereo not given)
T/C [7]: 105 % of control | T/C [8]: 108 % of control | T/C (dose: 25.0 mg/kg/injection, schedule: Q01DX009 (ip), vehicle: saline): 106 % of control | T/C (dose: 50.0 mg/kg/injection, schedule: Q01DX009 (ip), vehicle: saline): 117 % of control | T/C [9]: 106 % of control

CN1CC[N+](C)(Cc2ccc(C[N+]3(C)CC[N+](C)(Cc4ccc(CCl)cc4)CC3)cc2)CC1 (stereo not given)
T/C (dose: 12.5 mg/kg/injection, schedule: Q04DX003 (ip), vehicle: saline): 112 % of control | T/C (dose: 25.0 mg/kg/injection, schedule: Q04DX003 (ip), vehicle: saline): 102 % of control | T/C (dose: 50.0 mg/kg/injection, schedule: Q04DX003 (ip), vehicle: saline): 119 % of control

Cc1ccc(S(=O)(=O)N/N=C/c2c(Cl)n(-c3ccccc3)c3ccccc23)cc1
T/C [4]: 100 % of control | T/C [5]: 99 % of control | T/C [6]: 97 % of control

CC12OC3(C)c4ccccc4OP3(c3ccccc3)(Oc3ccccc31)O2 (stereo not given)
T/C (dose: 50.0 mg/kg/injection, schedule: Q01DX009 (ip), vehicle: saline with Tween-80): 99 % of control | T/C (dose: 100.0 mg/kg/injection, schedule: Q01DX009 (ip), vehicle: saline with Tween-80): 97 % of control | T/C (dose: 200.0 mg/kg/injection, schedule: Q01DX009 (ip), vehicle: saline with Tween-80): 88 % of control

CC(C)n1c(Cl)c(C=O)c2ccccc21
T/C (dose: 100.0 mg/kg/injection, schedule: Q01DX001 (ip), vehicle: Klucel (hydroxypropylcellulose) (HPC)): 94 % of control | T/C (dose: 200.0 mg/kg/injection, schedule: Q01DX001 (ip), vehicle: Klucel (hydroxypropylcellulose) (HPC)): 87 % of control | T/C (dose: 400.0 mg/kg/injection, schedule: Q01DX001 (ip), vehicle: Klucel (hydroxypropylcellulose) (HPC)): 98 % of control

CCN(CC)CCN1C(=O)C2C3C=CC(C2C1=O)C1C2C(=O)N(CCN(CC)CC)C(=O)C2C31 (stereo not given)
T/C [13]: 104 % of control | T/C [14]: 99 % of control and 100 % of control | T/C [15]: 100 % of control and 111 % of control | T/C [16]: 99 % of control and 103 % of control | T/C [17]: 101 % of control and 111 % of control

C=CC[P+](CC)(c1ccccc1)c1ccccc1
T/C (dose: 0.78 mg/kg/injection, schedule: Q01DX009 (ip), vehicle: saline): 95 % of control | T/C (dose: 1.56 mg/kg/injection, schedule: Q01DX009 (ip), vehicle: saline): 88 % of control | T/C (dose: 3.13 mg/kg/injection, schedule: Q01DX009 (ip), vehicle: saline): 93 % of control

NC(=NCc1ccccc1)N/N=C\c1ccnc2ccccc12
T/C (dose: 15.0 mg/kg/injection, schedule: Q01DX005 (ip), vehicle: Klucel (hydroxypropylcellulose) (HPC)): 101 % of control | T/C (dose: 30.0 mg/kg/injection, schedule: Q01DX005 (ip), vehicle: Klucel (hydroxypropylcellulose) (HPC)): 97 % of control | T/C [12]: 95 % of control and 97 % of control
